Experimental data reported in ChEMBL document CHEMBL2086238, “Identification of ETP-46321, a potent and orally bioavailable PI3K α, δ inhibitor” (Bioorg Med Chem Lett, 2012).
Activity calls are given as the source filed them. No cut-off for these calls is given here.

What was measured:
CYP2C19 = CYP2C19 (Homo sapiens, UniProt P33261); experiment: Inhibition of CYP2C19 at 10 uM; type: ADME
PI3K p110 beta/p85 alpha = PI3K p110 beta/p85 alpha (Homo sapiens, UniProt P42338); experiment: Inhibition of human PI3Kbeta (p110beta/p85alpha) by ADP accumulation based HTRF assay; type: protein-complex assay; conditions: read-out: Ki(app)
Sequence of PI3K p110 beta/p85 alpha (P27986 whole entry): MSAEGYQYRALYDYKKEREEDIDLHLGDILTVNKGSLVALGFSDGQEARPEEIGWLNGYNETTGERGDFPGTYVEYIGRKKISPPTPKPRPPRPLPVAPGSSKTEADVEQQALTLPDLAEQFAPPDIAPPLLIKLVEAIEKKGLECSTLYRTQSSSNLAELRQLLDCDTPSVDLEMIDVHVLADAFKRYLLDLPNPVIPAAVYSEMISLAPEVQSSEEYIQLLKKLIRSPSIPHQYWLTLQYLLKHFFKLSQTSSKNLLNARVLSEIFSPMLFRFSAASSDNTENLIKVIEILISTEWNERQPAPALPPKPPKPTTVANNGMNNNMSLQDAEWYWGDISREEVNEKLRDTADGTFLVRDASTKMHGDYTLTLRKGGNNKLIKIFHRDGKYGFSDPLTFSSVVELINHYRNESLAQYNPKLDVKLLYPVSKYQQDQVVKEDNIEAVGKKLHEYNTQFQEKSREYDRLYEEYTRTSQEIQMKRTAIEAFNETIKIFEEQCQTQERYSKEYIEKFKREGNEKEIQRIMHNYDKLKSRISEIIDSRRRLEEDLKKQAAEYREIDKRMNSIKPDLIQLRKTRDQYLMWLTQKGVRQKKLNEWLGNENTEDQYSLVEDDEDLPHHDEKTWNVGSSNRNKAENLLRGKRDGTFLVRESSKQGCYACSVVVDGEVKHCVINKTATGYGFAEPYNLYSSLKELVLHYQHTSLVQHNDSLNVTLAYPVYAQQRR
Sequence of PI3K p110 beta/p85 alpha (P42338 whole entry): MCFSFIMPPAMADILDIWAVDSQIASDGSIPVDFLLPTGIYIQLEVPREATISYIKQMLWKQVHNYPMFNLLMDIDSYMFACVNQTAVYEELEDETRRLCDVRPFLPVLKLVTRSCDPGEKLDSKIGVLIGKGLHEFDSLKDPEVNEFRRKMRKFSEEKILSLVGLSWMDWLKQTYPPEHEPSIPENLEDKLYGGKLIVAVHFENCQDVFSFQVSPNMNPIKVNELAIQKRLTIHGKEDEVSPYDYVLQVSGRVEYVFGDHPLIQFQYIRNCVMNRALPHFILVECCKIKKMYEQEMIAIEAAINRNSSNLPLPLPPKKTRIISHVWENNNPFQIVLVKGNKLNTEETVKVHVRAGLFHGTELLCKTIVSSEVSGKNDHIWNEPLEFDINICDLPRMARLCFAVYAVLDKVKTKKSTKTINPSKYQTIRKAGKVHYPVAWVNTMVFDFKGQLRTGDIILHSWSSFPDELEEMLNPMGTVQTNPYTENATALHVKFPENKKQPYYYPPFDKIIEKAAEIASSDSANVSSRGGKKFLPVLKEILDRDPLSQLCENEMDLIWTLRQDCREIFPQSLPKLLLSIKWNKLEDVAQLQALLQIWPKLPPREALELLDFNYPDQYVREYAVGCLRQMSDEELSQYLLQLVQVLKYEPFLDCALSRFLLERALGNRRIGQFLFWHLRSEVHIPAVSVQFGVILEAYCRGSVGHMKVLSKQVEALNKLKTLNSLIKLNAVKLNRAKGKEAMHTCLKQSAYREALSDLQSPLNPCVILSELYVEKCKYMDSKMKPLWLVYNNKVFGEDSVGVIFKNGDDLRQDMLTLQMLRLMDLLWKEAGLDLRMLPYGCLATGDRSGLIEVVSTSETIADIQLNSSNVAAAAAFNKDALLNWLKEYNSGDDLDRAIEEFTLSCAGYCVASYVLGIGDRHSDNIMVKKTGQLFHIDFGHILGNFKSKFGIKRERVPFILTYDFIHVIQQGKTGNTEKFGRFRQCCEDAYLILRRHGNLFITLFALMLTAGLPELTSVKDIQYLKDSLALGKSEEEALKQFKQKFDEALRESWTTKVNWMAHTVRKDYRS

[1] = biological target: PI3-kinase p110-delta/p85-alpha (Homo sapiens, UniProt O00329); experiment: Inhibition of human PI3Kdelta (p110delta/p85alpha) by ADP accumulation based HTRF assay; type: protein-complex assay; conditions: read-out: Ki(app)
[2] = biological target: Phosphatidylinositol 4,5-bisphosphate 3-kinase catalytic subunit gamma isoform (Homo sapiens, UniProt P48736); experiment: Inhibition of human PI3Kgamma by ADP accumulation based HTRF assay; conditions: read-out: Ki(app)
Sequence of Phosphatidylinositol 4,5-bisphosphate 3-kinase catalytic subunit gamma isoform (P48736 whole entry, canonical isoform): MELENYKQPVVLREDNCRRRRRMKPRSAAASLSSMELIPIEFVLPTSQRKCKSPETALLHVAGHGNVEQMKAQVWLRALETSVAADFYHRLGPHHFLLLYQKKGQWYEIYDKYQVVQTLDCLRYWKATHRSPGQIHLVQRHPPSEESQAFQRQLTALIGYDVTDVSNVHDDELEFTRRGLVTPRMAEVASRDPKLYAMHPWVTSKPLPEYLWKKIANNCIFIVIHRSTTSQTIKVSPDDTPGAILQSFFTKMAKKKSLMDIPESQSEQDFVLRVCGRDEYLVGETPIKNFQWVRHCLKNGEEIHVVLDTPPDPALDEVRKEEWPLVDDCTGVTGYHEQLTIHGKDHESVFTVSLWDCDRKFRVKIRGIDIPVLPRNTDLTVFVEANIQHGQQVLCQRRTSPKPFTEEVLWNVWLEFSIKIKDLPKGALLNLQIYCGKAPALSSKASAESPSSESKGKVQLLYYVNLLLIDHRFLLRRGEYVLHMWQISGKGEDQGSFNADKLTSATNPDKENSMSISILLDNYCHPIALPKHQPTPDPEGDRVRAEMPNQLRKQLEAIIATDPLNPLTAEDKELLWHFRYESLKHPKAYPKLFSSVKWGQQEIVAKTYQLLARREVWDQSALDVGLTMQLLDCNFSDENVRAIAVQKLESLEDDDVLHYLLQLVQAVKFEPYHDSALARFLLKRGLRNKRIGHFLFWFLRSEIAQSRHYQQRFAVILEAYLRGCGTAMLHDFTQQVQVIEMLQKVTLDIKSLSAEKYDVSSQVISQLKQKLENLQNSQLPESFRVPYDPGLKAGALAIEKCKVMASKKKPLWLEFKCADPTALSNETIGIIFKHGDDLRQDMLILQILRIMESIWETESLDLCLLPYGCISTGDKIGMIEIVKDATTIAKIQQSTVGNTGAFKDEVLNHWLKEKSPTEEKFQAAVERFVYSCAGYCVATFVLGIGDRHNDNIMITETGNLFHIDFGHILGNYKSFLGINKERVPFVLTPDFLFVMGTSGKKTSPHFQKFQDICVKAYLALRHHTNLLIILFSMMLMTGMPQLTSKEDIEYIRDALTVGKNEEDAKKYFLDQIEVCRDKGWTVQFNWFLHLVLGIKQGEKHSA

[3] = biological target: T1, NUAK family SNF1-like kinase 1 (Homo sapiens) (UniProt O60285); experiment: Inhibition of ARK5 at 5 uM
T1 sequence (whole entry): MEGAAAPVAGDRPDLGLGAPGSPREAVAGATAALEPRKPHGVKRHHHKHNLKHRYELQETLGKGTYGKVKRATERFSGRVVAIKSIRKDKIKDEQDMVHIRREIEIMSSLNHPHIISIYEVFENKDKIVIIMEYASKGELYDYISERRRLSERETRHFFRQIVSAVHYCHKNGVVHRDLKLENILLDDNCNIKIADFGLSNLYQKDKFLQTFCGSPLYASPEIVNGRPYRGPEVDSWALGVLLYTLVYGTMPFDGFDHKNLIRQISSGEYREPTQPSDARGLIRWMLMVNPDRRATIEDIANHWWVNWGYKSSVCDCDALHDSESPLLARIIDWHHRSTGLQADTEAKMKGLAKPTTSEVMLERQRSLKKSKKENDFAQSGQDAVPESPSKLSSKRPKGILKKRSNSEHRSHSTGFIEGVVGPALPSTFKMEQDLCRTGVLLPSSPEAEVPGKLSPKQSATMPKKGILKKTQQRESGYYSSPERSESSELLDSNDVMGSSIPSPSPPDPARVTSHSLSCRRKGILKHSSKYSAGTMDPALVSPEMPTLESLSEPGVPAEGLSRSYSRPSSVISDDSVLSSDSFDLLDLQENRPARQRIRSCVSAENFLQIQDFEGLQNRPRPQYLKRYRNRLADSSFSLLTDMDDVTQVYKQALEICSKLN

[4] = biological target: Mitogen-activated protein kinase 8 (Homo sapiens) (UniProt P45983); experiment: Inhibition of JNK1 at 5 uM
Sequence of Mitogen-activated protein kinase 8 (Homo sapiens) (P45983 whole entry): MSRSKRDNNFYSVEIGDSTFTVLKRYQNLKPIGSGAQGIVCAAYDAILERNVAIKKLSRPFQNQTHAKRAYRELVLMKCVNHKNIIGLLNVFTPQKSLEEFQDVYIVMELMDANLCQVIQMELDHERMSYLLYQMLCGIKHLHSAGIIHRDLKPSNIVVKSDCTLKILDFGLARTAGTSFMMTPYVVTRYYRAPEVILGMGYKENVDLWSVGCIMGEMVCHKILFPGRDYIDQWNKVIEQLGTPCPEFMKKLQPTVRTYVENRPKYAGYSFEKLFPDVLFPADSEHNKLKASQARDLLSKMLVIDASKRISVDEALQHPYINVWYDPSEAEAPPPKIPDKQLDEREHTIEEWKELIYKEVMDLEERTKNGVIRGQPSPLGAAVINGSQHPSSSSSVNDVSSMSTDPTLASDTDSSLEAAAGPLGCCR

[5] = biological target: Mast/stem cell growth factor receptor Kit (Homo sapiens) (UniProt P10721); experiment: Inhibition of KIT at 5 uM
Sequence of Mast/stem cell growth factor receptor Kit (Homo sapiens) (P10721 whole entry): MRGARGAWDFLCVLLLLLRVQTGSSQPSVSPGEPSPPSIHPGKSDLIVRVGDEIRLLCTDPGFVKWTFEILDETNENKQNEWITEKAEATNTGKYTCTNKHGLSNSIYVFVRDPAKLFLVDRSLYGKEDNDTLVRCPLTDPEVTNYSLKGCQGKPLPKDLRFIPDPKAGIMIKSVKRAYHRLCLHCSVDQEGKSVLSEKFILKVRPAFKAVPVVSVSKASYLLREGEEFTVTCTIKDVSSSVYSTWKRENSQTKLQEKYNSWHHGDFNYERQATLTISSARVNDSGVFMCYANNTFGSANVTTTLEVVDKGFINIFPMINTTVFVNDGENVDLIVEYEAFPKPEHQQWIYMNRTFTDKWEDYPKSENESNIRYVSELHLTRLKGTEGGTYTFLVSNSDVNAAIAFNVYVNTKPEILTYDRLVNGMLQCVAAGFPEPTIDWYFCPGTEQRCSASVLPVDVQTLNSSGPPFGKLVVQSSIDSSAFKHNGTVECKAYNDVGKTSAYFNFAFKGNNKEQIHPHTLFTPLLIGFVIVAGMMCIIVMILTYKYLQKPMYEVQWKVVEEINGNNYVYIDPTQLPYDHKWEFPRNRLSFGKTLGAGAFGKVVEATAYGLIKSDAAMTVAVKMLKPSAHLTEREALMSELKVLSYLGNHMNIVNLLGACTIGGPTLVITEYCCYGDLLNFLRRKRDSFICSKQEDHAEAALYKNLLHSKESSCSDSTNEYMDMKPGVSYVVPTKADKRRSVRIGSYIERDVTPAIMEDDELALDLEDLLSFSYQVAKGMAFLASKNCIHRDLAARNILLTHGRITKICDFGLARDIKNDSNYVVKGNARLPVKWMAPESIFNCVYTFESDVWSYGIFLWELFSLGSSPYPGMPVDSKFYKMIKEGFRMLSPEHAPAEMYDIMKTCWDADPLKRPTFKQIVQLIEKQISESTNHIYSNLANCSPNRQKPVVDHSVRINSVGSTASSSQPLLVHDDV

[6] = Clearance in BALB-C mouse; type: ADME, organism-based; conditions: in vivo
[7] = Oral bioavailability in BALB-C mouse; type: ADME, organism-based; conditions: in vivo
Mus musculus [8] = experiment: In-vivo inhibition of PI3Kalpha-mediated AKT Ser 473 phosphorylation in lung of tamoxifen-induced mouse tumor model at 50 mg/kg, po measured 2 to 4 hrs post dose; type: functional
Mus musculus [9] = experiment: Antitumor activity in tamoxifen-induced mouse tumor model assessed as tumor growth inhibition at 50 mg/kg/day, po for 3 weeks by computed tomography; type: functional; conditions: 504 h, read-out: GI
Mus musculus [10] = experiment: Antitumor activity in tamoxifen-induced mouse tumor model assessed as reduction in lung [18F]FDG uptake at 50 mg/kg/day, po for 3 weeks by PET-CT method; type: functional, organism-based
Mus musculus [11] = experiment: Antitumor activity in tamoxifen-induced mouse tumor model assessed as reduction in lung metabolic activity at 50 mg/kg/day, po for 3 weeks by [18F]FDG uptake based PET-CT method; type: functional, organism-based
[12] = biological target: Phosphatidylinositol 4,5-bisphosphate 3-kinase catalytic subunit alpha isoform (Homo sapiens, UniProt P42336, E542K); experiment: Inhibition of human PI3Kalpha E542K mutant by ADP accumulation based HTRF assay; conditions: read-out: Ki(app)
[13] = biological target: Phosphatidylinositol 4,5-bisphosphate 3-kinase catalytic subunit alpha isoform (Homo sapiens, UniProt P42336, E545K); experiment: Inhibition of human PI3Kalpha E545K mutant by ADP accumulation based HTRF assay; conditions: read-out: Ki(app)
[14] = biological target: Phosphatidylinositol 4,5-bisphosphate 3-kinase catalytic subunit alpha isoform (Homo sapiens, UniProt P42336, H1047R); experiment: Inhibition of human PI3Kalpha H1047R mutant by ADP accumulation based HTRF assay; conditions: read-out: Ki(app)

Sequence of CYP2C19 (P33261 whole entry): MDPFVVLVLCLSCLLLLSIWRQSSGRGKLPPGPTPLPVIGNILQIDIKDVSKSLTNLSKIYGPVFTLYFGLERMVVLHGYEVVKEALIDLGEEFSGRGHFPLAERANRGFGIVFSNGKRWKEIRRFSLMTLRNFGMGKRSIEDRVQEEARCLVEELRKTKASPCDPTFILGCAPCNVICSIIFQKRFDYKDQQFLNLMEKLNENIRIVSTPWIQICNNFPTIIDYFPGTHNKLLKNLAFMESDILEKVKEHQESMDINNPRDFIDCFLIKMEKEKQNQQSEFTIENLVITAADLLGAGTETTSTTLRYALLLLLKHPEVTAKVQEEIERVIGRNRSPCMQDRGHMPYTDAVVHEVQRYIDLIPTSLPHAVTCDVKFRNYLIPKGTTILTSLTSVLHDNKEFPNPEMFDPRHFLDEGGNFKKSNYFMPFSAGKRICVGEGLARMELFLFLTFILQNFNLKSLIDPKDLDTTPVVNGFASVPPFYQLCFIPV

Which inhibition at 10 µM (CYP2C19) does the source give for `Cc1c(CN2CCN(S(C)(=O)=O)CC2)nc2c(N3CCOCC3)nc(-c3cnc(N)nc3)cn12` here?
Its inhibition at 10 µM is less than 30%.

What about the Ki (PI3K p110 beta/p85 alpha) of the same compound?
The Ki was 202 nM.

What about the Ki [1] of the same compound?
The Ki was 15.6 nM.

What about the Ki [2] of the same compound?
The Ki was 59.8 nM.

What about the inhibition [3] of the same compound?
Its inhibition is less than 30%.

And the inhibition [4]?
The inhibition was less than 30%.

What about the inhibition [5] of the same compound?
The inhibition was less than 30%.

Which inhibition at 10 µM (CYP2C19) does the source give for `CS(=O)(=O)N1CCN(Cc2cn3cc(-c4cnc(N)nc4)nc(N4CCOCC4)c3n2)CC1` here?
Its inhibition at 10 µM is less than 30%.

And the inhibition [3]?
Its inhibition is less than 30%.

What about the inhibition [4] of the same compound?
The inhibition was less than 30%.

What about the inhibition [5] of the same compound?
The inhibition was less than 30%.

And the clearance [6]?
Its clearance is 10 mL/min/kg.

And the bioavailability [7]?
The bioavailability was 90%.

What about the inhibition in vivo at 50 mg/kg (Mus musculus [8]) of the same compound?
The inhibition in vivo at 50 mg/kg was greater than 50%.

What about the inhibition in vivo at 50 mg/kg/day (Mus musculus [9]) of the same compound?
Its inhibition in vivo at 50 mg/kg/day is 51%.

What about the Activity (Mus musculus [10]) of the same compound?
The Activity was “Active”.

And the Activity (Mus musculus [11])?
The Activity was “Active”.

Which results are given for `Cc1nc(N)ncc1-c1cn2cc(CN3CCN(S(C)(=O)=O)CC3)nc2c(N2CCOCC2)n1`?
inhibition [3]: < 30%; inhibition [4]: < 30%; inhibition [5]: < 30%

What does the source list for `CS(=O)(=O)N1CCN(Cc2cn3c(Cl)c(-c4cnc(N)nc4)nc(N4CCOCC4)c3n2)CC1`?
inhibition at 10 µM (CYP2C19): < 30%; Ki (PI3K p110 beta/p85 alpha): 212 nM; Ki [2]: 84 nM; Ki [12]: 2.77 nM; Ki [13]: 1.73 nM; Ki [14]: 3.07 nM; inhibition [3]: < 30%; inhibition [4]: < 30%; inhibition [5]: < 30%

Which results are given for `CS(=O)(=O)N1CCN(Cc2nc3c(N4CCOCC4)nc(-c4cnc(N)nc4)cn3c2Br)CC1`?
inhibition at 10 µM (CYP2C19): < 30%; inhibition [3]: < 30%; inhibition [4]: < 30%; inhibition [5]: < 30%
